From publication PMC7672424 (Nucleic Acids Research, 2020)

Legend:
[1] = target: TTA45; assay: smFRET analysis of TTA45 conformational ensemble; assay type: binding, human; details: from high-FRET population against BMPQ-1 concentration; read-out: dissociation constant (KD)
Description: 5′- FAM and 3′-Cy5 labeled TTA45 oligonucleotides were annealed in the buffer of 10 mM Tris–HCl (pH 7.4) and 100 mM KCl, by heating to 95°C for 5 min and slowly cooling down to room temperature. smFRET data collection and analysis were performed as previously described ([43]). In brief, an A1 confocal microscope (Nikon, Japan) coupled to two picosecond pulsed diode laser heads (LDH-P-C-485B and LDH-P-C-640B, PicoQuant, Germany) and two SPCM-AQRH detectors (Excelitas, Canada) was used for fluorescence excitation and emission detection. A 60 × water immersion objective (WI 60×, NA 1.20, Nikon, Japan) was used for confocal laser microscopy, and the pinhole size was set at ∼100 μm. The laser power before the objective was set at ∼100 μW for the 485-nm laser and ∼35 μW for the 640-nm laser. […]
The smFRET measurements were performed at room temperature in pH 7.4 buffer containing 10 mM Tris–HCl, 100 mM KCl, and 0.01% (v/v) Tween 20, with additional 1 mM ascorbic acid and 1 mM methylviologen for photo bleaching and blinking minimization ([44]). […] The exact FRET efficiencies were calculated based on our calibrated parameters for the instrument and fluorophores, and the FRET efficiency distribution was analyzed with a multi-Gaussian mixture using a handwritten script.

[2] = system: FAM-TTA45-TAMRA (DNA, G4) GGGTTAGGGTTAGGGTTAGGGTTAGGGTTAGGGTTAGGGTTAGGG; assay: FRET melting; details: 100 mM K+ (KCl) plus potassium phosphate; 10 mM K2HPO4/KH2PO4 pH 7.0; 0.5 µM DNA, 20 µM compound
[3] = system: TTA69; assay: CD melting, DNA stabilization; assay type: binding, human; details: 5 µM DNA, 20 µM BMPQ-1, 10 mM Tris-HCl, 50 mM KCl, pH 7.4
Description: CD studies were performed on a Chirascan circular dichroism spectrophotometer (Jasco, Easton, MD, USA). A quartz cuvette with a 1 mm path length was used to record the spectra over a wavelength range of 220–320 nm with a 1 nm bandwidth. All the samples were prepared in buffer containing 10 mM Tris–HCl pH 7.4, 100 mM KCl. To ensure the concentrations of G-quadruplex units to be 20 μM, multiple G-quadruplexes forming oligonucleotides with different concentrations were used (TTA (G1) 20 μM, TTA45 (G2) 10 μM, TTA69 (G3) 6.67 μM, TTA93 (G4) 5 μM, TTA117 (G5) 4 μM, TTA141 (G6) 3.33 μM). The DNA samples were heated at 95°C for 5 min and cooled down slowly to room temperature. 20, 40 and 60 μM BMPQ-1 were mixed with DNAs separately. Melting curves were measured at 295 nm and the range of temperature was 4–95°C.

[4] = system: TTA57/T5 (DNA, G4) GGGTTAGGGTTAGGGTTAGGGTTATTATTATTATTAGGGTTAGGGTTAGGGTTAGGG; assay: fluorescence titration; details: 100 mM K+ (KCl) plus potassium phosphate; 10 mM K2HPO4/KH2PO4 pH 7.0; 3 µM compound, DNA 0-10 µM; weaker than TTA45
[5] = system: human normal liver cells (HL-7702); assay: Cell cytotoxicity assay (CCK8); assay type: cell-based; details: L02, CCK8, 48 h treatment
Description: The cell growth effect of BMPQ-1 against different cell lines were tested via measuring the quantity of living cells using the Cell Counting Kit-8 (CCK8) (DOJINDO, Japan) according to the instruction. Cells were seeded in a 96-well plate (5 × 10^3 cells/well) and grown for 24 h for attachment. Then the cells were treated with various concentrations of BMPQ-1 and incubated at 37°C with 5% CO2 for 48 h. After incubation, the old medium was discarded followed by adding fresh medium containing 10% FBS in DMEM. Then 100 μl CCK-8 (10% in grow medium) was added into each well, and the cells were further incubated for 1 h. The optical density (OD) was detected at 450 nm by an automated microplate reader (Bio-Rad). The IC50 values were derived from the curves of the mean percentage of survival against the drug concentration. All the experiments were performed in triplicate.
A Cell Counting Kit-8 (CCK8) (DOJINDO, Japan) was employed to evaluate the cytotoxicity of BMPQ-1 on human alveolar basal epithelial cancer cell line (A549), human hepatocellular carcinoma cancer cell line (HepG2), human gastric cancer cell line (MGC-803), human colon adenocarcinoma (HT29), human normal liver Cells (HL-7702).

[6] = system: TTA (DNA, G4) GGGTTAGGGTTAGGGTTAGGG; assay: CD melting; details: 50 mM K+; 10 mM Tris-HCl pH 7.4; 5 µM DNA, 20 µM compound

`Cc1ccc(Cn2cc3c(-c4ccc5c(c4)OCO5)nnc-3c3cc4c(cc32)OCO4)cc1` [BMPQ-1] was tested, and the Kd [1] was 530 nM, the ΔTm [2] was 16.09 ± 1.79 °C and the “ΔTm (°C) TTA69” value [3] was 13.8 °C. The binding [4] was “yes”, the IC50 [5] was 4380 ± 390 nM and the ΔTm [6] was 8.4 °C.
